# Measured values taken from patent US7560468B2, “Substituted 1,4,8-triazaspiro[4,5]decan-2-one compounds” (Gruenenthal GmbH, priority 2004, dated 2009).
# System: batrachotoxin (BTX) binding site of the sodium channel
# Assay: Affinity to the batrachotoxin (BTX) binding site of the sodium channel
# Details: rat cerebrocortex synaptosomes, [3H]-batrachotoxinin A20 α-benzoate 10 nM; test concentration not given
row,Compound,BTX Inhibition
1,"1-Allyl-3-isopropyl-2-oxo-1,4,8-triazaspiro[4,5]decan-8-thiocarboxylic acid (3,5-dichlorobenzol)amide [Example 180]",54
2,"1-Butyl-3-isopropyl-2-oxo-1,4,8-triazaspiro[4,5]decan-8-thiocarboxylic acid (3-chlorobenzol)amide [Example 142]",63
3,"1-Methyl-3-(2-methylsulfanylethyl)-2-oxo-1,4,8-triazaspiro[4,5]decan-8-thiocarboxylic acid (3-trifluoromethylbenzol)amide [Example 194]",36
4,"CC(C)C1NC2(CCN(S(=O)(=O)c3ccc(F)c(Cl)c3)CC2)N(CCOc2ccccc2)C1=O (stereo not shown) [Example 17, 8-(3-Chloro-4-fluorobenzolsulfonyl)-3-isopropyl-1-(2-phenoxy-ethyl)-1,4,8-triazaspiro[4,5]decan-2-one]",41
5,"CCCCN1C(=O)C(C(C)C)NC12CCN(S(=O)(=O)c1ccc(F)cc1F)CC2 (stereo not shown) [Example 19, 1-Butyl-8-(2,4-difluorobenzolsulfonyl)-3-isopropyl-1,4,8-triazaspiro[4,5]decan-2-one]",30
6,"Cc1ccc(S(=O)(=O)N2CCC3(CC2)NC(C(C)C)C(=O)N3CCOc2ccccc2)cc1 (stereo not shown) [Example 21, 3-Isopropyl-1-(2-phenoxy-ethyl)-8-(toluol-4-sulfonyl)-1,4,8-triazaspiro[4,5]decan-2-one]",54
7,"Cc1cc(S(=O)(=O)N2CCC3(CC2)NC(CC(C)C)C(=O)N3Cc2ccccc2)c(C)cc1Cl (stereo not shown) [Example 27, 1-Benzyl-8-(4-chloro-2,5-dimethylbenzolsulfonyl)-3-isobutyl-1,4,8-triazaspiro[4,5]decan-2-one]",59
8,"COc1ccc(S(=O)(=O)N2CCC3(CC2)NCC(=O)N3Cc2ccccc2F)cc1 [Example 64, 1-(2-Fluorobenzyl)-8-(4-methoxy-benzolsulfonyl)-1,4,8-triazaspiro[4,5]decan-2-one]",42
9,"C=CCN1C(=O)C(C(C)C)NC12CCN(S(=O)(=O)c1c(C)cc(C)cc1C)CC2 (stereo not shown) [Example 70, 1-Allyl-3-isopropyl-8-(2,4,6-trimethylbenzolsulfonyl)-1,4,8-triazaspiro[4,5]decan-2-one]",60
10,"C=CCN1C(=O)C(CCSC)NC12CCN(S(=O)(=O)c1ccc3c(c1)CN(C(=O)C(F)(F)F)CC3)CC2 (stereo not shown) [Example 78, 1-Allyl-3-(2-methylsulfanylethyl)-8-[2-(2,2,2-trifluoroacetyl)-1,2,3,4-tetrahydroisoquinolin-7-sulfonyl]-1,4,8-triazaspiro[4,5]decan-2-one]",32
11,"COc1ccc(CNC(=S)N2CCC3(CC2)NC(CCSC)C(=O)N3C)cc1 (stereo not shown) [Example 111, 1-Methyl-3-(2-methylsulfanylethyl)-2-oxo-1,4,8-triazaspiro[4,5]decan-8-thiocarboxylic acid 4-methoxy-benzylamide]",51
12,"CN1C(=O)C(Cc2ccccc2)NC12CCN(C(=S)NCc1cc(F)ccc1F)CC2 (stereo not shown) [Example 118, 3-Benzyl-1-methyl-2-oxo-1,4,8-triazaspiro[4,5]decan-8-thiocarboxylic acid (2,5-difluorobenzol)amide]",42
13,"C=CCNC(=S)N1CCC2(CC1)NC(C(C)C)C(=O)N2Cc1ccc(C(=O)OC)cc1 (stereo not shown) [Example 126, Methyl 4-(8-allylthiocarbamoyl-3-isopropyl-2-oxo-1,4,8-triazaspiro[4,5]dec-1-ylmethyl)benzoate]",37
14,"CCCCN1C(=O)C(CCSC)NC12CCN(C(=S)NCc1ccccc1OC)CC2 (stereo not shown) [Example 127, 1-Butyl-3-(2-methylsulfanylethyl)-2-oxo-1,4,8-triazaspiro[4,5]decan-8-thiocarboxylic acid (2-methoxy-benzol)amide]",44
15,"CSCCC1NC2(CCN(C(=S)NCc3ccc(Cl)cc3)CC2)N(C)C1=O (stereo not shown) [Example 133, 1-Methyl-3-(2-methylsulfanylethyl)-2-oxo-1,4,8-triazaspiro[4,5]decan-8-thiocarboxylic acid (4-chlorobenzol)amide]",44
16,"CSCCC1NC2(CCN(C(=S)NCc3ccc(F)cc3)CC2)N(C)C1=O (stereo not shown) [Example 134, 1-Methyl-3-(2-methylsulfanylethyl)-2-oxo-1,4,8-triazaspiro[4,5]decan-8-thiocarboxylic acid 4-fluorobenzylamide]",50
17,"CSCCC1NC2(CCN(C(=S)NCc3cc(F)ccc3F)CC2)N(C)C1=O (stereo not shown) [Example 138, 1-Methyl-3-(2-methylsulfanylethyl)-2-oxo-1,4,8-triazaspiro[4,5]decan-8-thiocarboxylic acid (2,5-difluorobenzol)amide]",34
18,"CC(=O)c1cccc(NC(=S)N2CCC3(CC2)NC(CC(C)C)C(=O)N3Cc2ccccc2C#N)c1 (stereo not shown) [Example 141, 1-(2-Cyanobenzyl)-3-isobutyl-2-oxo-1,4,8-triazaspiro[4,5]decan-8-thiocarboxylic acid (3-acetylbenzol)amide]",50
19,"CSCCC1NC2(CCN(C(=S)NCc3ccc(Cl)cc3)CC2)N(Cc2cccc(C#N)c2)C1=O (stereo not shown) [Example 185, 1-(3-Cyanobenzyl)-3-(2-methylsulfanylethyl)-2-oxo-1,4,8-triazaspiro[4,5]decan-8-thiocarboxylic acid 4-chlorobenzylamide]",72
20,"C#CCN1C(=O)C(CC(C)C)NC12CCN(C(=S)Nc1c(Cl)cccc1Cl)CC2 (stereo not shown) [Example 190, 3-Isobutyl-2-oxo-1-prop-2-ynyl-1,4,8-triazaspiro[4,5]decan-8-thiocarboxylic acid (2,6-dichlorobenzol)amide]",53
21,"COC(=O)c1ccc(CN2C(=O)C(C(C)C)NC23CCN(C(=S)NCc2ccc(Cl)cc2)CC3)cc1 (stereo not shown) [Example 191, Methyl 4-[8-(4-chlorobenzylthiocarbamoyl)-3-isopropyl-2-oxo-1,4,8-triazaspiro[4,5]dec-1-ylmethyl]-benzoate]",74
22,"CSCCC1NC2(CCN(C(=S)NC(C)c3ccccc3)CC2)N(Cc2ccc(F)cc2)C1=O (stereo not shown) [Example 196, 1-(4-Fluorobenzyl)-3-(2-methylsulfanylethyl)-2-oxo-1,4,8-triazaspiro[4,5]decan-8-thiocarboxylic acid (1-benzol-ethyl)amide]",70
23,"O=C1C(Cc2ccccc2)NC2(CCN(C(=S)NCc3ccc(Cl)cc3)CC2)N1Cc1ccccc1F (stereo not shown) [Example 197, 3-Benzyl-1-(2-fluorobenzyl)-2-oxo-1,4,8-triazaspiro[4,5]decan-8-thiocarboxylic acid 4-chlorobenzylamide]",77
24,"CC(C)C1NC2(CCN(C(=S)NCc3ccccc3)CC2)N(Cc2ccccc2)C1=O (stereo not shown) [Example 199, 1-Benzyl-3-isopropyl-2-oxo-1,4,8-triazaspiro[4,5]decan-8-thiocarboxylic acid benzylamide]",44
25,"C=CCN1C(=O)C(C(C)C)NC12CCN(C(=O)Nc1cc(F)ccc1F)CC2 (stereo not shown) [Example 209, 1-Allyl-3-isopropyl-2-oxo-1,4,8-triazaspiro[4,5]decan-8-carboxylic acid (2,5-difluorobenzol)amide]",31
26,"CC(C)CC1NC2(CCN(C(=O)Nc3cc(F)ccc3F)CC2)N(Cc2ccccc2C#N)C1=O (stereo not shown) [Example 218, 1-(2-Cyanobenzyl)-3-isobutyl-2-oxo-1,4,8-triazaspiro[4,5]decan-8-carboxylic acid (2,5-difluorobenzol)amide]",40
27,"CSCCC1NC2(CCN(C(=O)NCc3ccc(Cl)c(Cl)c3)CC2)N(Cc2ccc(F)cc2)C1=O (stereo not shown) [Example 228, 1-(4-Fluorobenzyl)-3-(2-methylsulfanylethyl)-2-oxo-1,4,8-triazaspiro[4,5]decan-8-carboxylic acid 3,4-dichlorobenzylamide]",87
28,"COC(=O)c1ccc(CN2C(=O)C(C(C)C)NC23CCN(C(=O)NCc2ccc(Cl)c(Cl)c2)CC3)cc1 (stereo not shown) [Example 232, Methyl 4-[8-(3,4-dichlorobenzylcarbamoyl)-3-isopropyl-2-oxo-1,4,8-triazaspiro[4,5]dec-1-ylmethyl]-benzoate]",55
29,"Methyl 4-[8-(2,6-dichlorobenzolthiocarbamoyl)-3-isopropyl-2-oxo-1,4,8-triazaspiro[4,5]dec-1-ylmethyl]-benzoate [Example 135]",38

# Target: T1, 5-HT transporter (Rattus norvegicus, UniProt P31652)
# T1 construct: from tissue; host or cells: rat brain synaptosomes (marrow/medulla and pons), P2 fraction
# Assay: Inhibition of 5-HT uptake in synaptosomes
# Type: biochemical
# Details: rat, 1 μM
# T1 sequence (P31652 whole entry): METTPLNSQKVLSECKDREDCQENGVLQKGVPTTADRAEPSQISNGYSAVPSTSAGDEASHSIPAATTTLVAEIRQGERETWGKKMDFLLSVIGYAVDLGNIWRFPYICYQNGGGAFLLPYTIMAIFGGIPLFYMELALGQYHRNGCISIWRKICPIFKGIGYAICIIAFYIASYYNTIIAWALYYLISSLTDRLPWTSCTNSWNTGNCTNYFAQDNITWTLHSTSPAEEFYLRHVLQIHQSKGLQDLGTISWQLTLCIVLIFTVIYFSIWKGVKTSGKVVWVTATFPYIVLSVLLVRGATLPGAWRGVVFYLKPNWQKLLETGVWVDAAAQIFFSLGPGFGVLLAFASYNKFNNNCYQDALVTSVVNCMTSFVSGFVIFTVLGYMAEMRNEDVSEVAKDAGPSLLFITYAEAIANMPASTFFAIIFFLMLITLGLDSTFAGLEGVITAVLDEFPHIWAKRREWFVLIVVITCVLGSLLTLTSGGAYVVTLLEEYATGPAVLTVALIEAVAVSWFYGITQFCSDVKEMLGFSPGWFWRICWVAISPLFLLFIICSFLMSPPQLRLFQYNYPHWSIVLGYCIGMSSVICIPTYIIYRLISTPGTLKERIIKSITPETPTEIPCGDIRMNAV
row,Compound,"Uptake_5-HT, rat, 1 μM, % inhibition [%]"
1,"CC(C)C1NC2(CCN(S(=O)(=O)c3ccc([N+](=O)[O-])cc3)CC2)NC1=O (stereo not shown) [Example 1, 3-Isopropyl-8-(4-nitrobenzolsulfonyl)-1,4,8-triazaspiro[4,5]decan-2-one]",55
2,"CCCCN1C(=O)C(CCSC)NC12CCN(S(=O)(=O)c1ccc(C(C)=O)cc1)CC2 (stereo not shown) [Example 13, 8-(4-Acetylbenzolsulfonyl)-1-butyl-3-(2-methylsulfanylethyl)-1,4,8-triazaspiro[4,5]decan-2-one]",56

# Same assay, conditions: read-out: 5-HT uptake: Km; characteristic data of the 5-HT transporter
row,Compound,Km [µM]
1,"NCCc1c[nH]c2ccc(O)cc12 [Example 5-HT, serotonin, reference compound]",0.084 ± 0.011

# Same assay, conditions: read-out: Uptake_5-HT, rat, 1 μM, % inhibition
row,Compound,inhibition at 1 µM [%]
1,"CCCCN1C(=O)C(CCSC)NC12CCN(S(=O)(=O)c1ccc(Cl)s1)CC2 (stereo not shown) [Example 12, 1-Butyl-8-(5-chlorothiophen-2-sulfonyl)-3-(2-methylsulfanylethyl)-1,4,8-triazaspiro[4,5]decan-2-one]",58
2,"CCCCN1C(=O)C(C(C)C)NC12CCN(S(=O)(=O)c1ccccc1C(=O)OC)CC2 (stereo not shown) [Example 15, Methyl 2-(1-butyl-3-isopropyl-2-oxo-1,4,8-triazaspiro[4,5]decan-8-sulfonyl)benzoate]",44
